Reference: PubChem BioAssay AID328 (DTP/NCI, 2004)
“And” between values parts separate entries of the source, which are not always exact repeats. Identical values can stand only once. Inconclusive results and toxic doses are left out. The calls were made as follows: active = survival T/C of 150% or more; inactive = T/C below 125% in these data.

System: BDF1 mice, P388 leukemia ip, median survival T/C
Experiment: NCI In Vivo Anticancer Drug Screen. Data for tumor model P388 Leukemia (intraperitoneal) in B6D2F1 (BDF1) mice
Conditions: endpoint: median survival time, higher = longer survival
How it was run: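 Survival ratio, drug arm over vehicle arm, in mice with a transplanted tumour.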

[1] = dose: 100.0 mg/kg/injection, schedule: Q04DX003 (ip), vehicle: Klucel (hydroxypropylcellulose) (HPC)
[2] = dose: 200.0 mg/kg/injection, schedule: Q04DX003 (ip), vehicle: Klucel (hydroxypropylcellulose) (HPC)
[3] = dose: 400.0 mg/kg/injection, schedule: Q04DX003 (ip), vehicle: Klucel (hydroxypropylcellulose) (HPC)
[4] = dose: 100.0 mg/kg/injection, schedule: Q04DX003 (ip), vehicle: saline with Tween-80
[5] = dose: 200.0 mg/kg/injection, schedule: Q04DX003 (ip), vehicle: saline with Tween-80
[6] = dose: 400.0 mg/kg/injection, schedule: Q04DX003 (ip), vehicle: saline with Tween-80
[7] = dose: 50.0 mg/kg/injection, schedule: Q01DX009 (ip), vehicle: saline with Tween-80
[8] = dose: 100.0 mg/kg/injection, schedule: Q01DX009 (ip), vehicle: saline with Tween-80
[9] = dose: 200.0 mg/kg/injection, schedule: Q01DX009 (ip), vehicle: saline with Tween-80
[10] = dose: 25.0 mg/kg/injection, schedule: Q01DX009 (ip), vehicle: Klucel (hydroxypropylcellulose) (HPC)
[11] = dose: 50.0 mg/kg/injection, schedule: Q01DX009 (ip), vehicle: Klucel (hydroxypropylcellulose) (HPC)
[12] = dose: 100.0 mg/kg/injection, schedule: Q01DX009 (ip), vehicle: Klucel (hydroxypropylcellulose) (HPC)
[13] = dose: 200.0 mg/kg/injection, schedule: Q01DX009 (ip), vehicle: Klucel (hydroxypropylcellulose) (HPC)
[14] = dose: 100.0 mg/kg/injection, schedule: Q04DX003 (ip), vehicle: saline
[15] = dose: 200.0 mg/kg/injection, schedule: Q04DX003 (ip), vehicle: saline
[16] = dose: 12.5 mg/kg/injection, schedule: Q01DX009 (ip), vehicle: saline with Tween-80
[17] = dose: 25.0 mg/kg/injection, schedule: Q01DX009 (ip), vehicle: saline with Tween-80

Measured: T/C

C=C1C(C)C2C(Cc3ccccc3)NC(=O)C23C(OC(C)=O)C=CC(C)(O)C(=O)C(C)C/C=C/C3C1O (stereo unspecified)
active: dose: 1.6 mg/kg/injection, schedule: Q01DX009 (ip), vehicle: saline 157 % of control | dose: 2.5 mg/kg/injection, schedule: Q01DX009 (ip), vehicle: saline 172 % of control
inactive: dose: 0.62 mg/kg/injection, schedule: Q01DX009 (ip), vehicle: saline with Tween-80 104 % of control | dose: 1.25 mg/kg/injection, schedule: Q01DX009 (ip), vehicle: saline with Tween-80 110 % of control

O=C1c2ccccc2-c2cc(-c3ccccc3)cc(-c3ccccc3)c21
inactive: [1] 100 % of control | [2] 100 % of control | [3] 100 % of control

COc1cc2cc3c4ccc(OC)c(OC)c4cc[n+]3c(C)c2cc1OC (tested in a mixture with another compound)
active: dose: 20.0 mg/kg/injection, schedule: Q01DX009 (ip), vehicle: saline 164 % of control | dose: 40.0 mg/kg/injection, schedule: Q01DX009 (ip), vehicle: saline 150 % of control and 156 % of control | dose: 80.0 mg/kg/injection, schedule: Q01DX009 (ip), vehicle: saline 168 % of control and 172 % of control | dose: 120.0 mg/kg/injection, schedule: Q01DX009 (ip), vehicle: saline 172 % of control and 185 % of control

CCCNC(=O)Oc1c(C(C)C)ccc(C)c1Cl
inactive: [4] 100 % of control | [5] 90 % of control | [6] 104 % of control

COc1cccc(CCNC(=O)CC#N)c1OC
inactive: [7] 105 % of control | [8] 105 % of control | [4] 100 % of control | [9] 95 % of control | [5] 100 % of control | [6] 100 % of control

COC(=O)C1=C(C)N[C@@]2(C)[C@H](C(=O)OC)C[C@H]1C2(C(C)=O)C(C)=O
inactive: [7] 116 % of control | [8] 109 % of control | [9] 109 % of control

COc1cc(C(Cc2ccnc3ccccc23)Cc2ccnc3ccccc23)ccc1N(C)C
inactive: [4] 91 % of control | [5] 104 % of control | [6] 115 % of control

O=[N+]([O-])c1ccc(N2CCN(CCO)CC2)c2c1no[n+]2[O-]
active: dose: 15.0 mg/kg/injection, schedule: Q01DX009 (ip), vehicle: saline with Tween-80 154 % of control | dose: 30.0 mg/kg/injection, schedule: Q01DX009 (ip), vehicle: saline with Tween-80 161 % of control

COc1ccc(C(=S)N(C)NC(=O)CC(=O)NN(C)C(=S)c2ccc(OC)cc2)cc1
inactive: [10] 100 % of control | [11] 102 % of control | [12] 89 % of control | [13] 100 % of control

CNC(=S)NN
inactive: [14] 100 % of control | dose: 200.0 mg/kg/injection, schedule: Q01DX001 (ip), vehicle: saline 100 % of control | [15] 90 % of control | dose: 400.0 mg/kg/injection, schedule: Q04DX003 (ip), vehicle: saline 100 % of control

NCCc1ccc(O)c(O)c1
active: dose: 300.0 mg/kg/injection, schedule: Q01DX009 (ip), vehicle: saline 158 % of control
inactive: dose: 37.5 mg/kg/injection, schedule: Q01DX009 (ip), vehicle: saline 101 % of control and 120 % of control | dose: 75.0 mg/kg/injection, schedule: Q01DX009 (ip), vehicle: saline 114 % of control | dose: 150.0 mg/kg/injection, schedule: Q01DX009 (ip), vehicle: saline 111 % of control

CC(=O)C1C(=O)C(=O)OC1C (stereo unspecified)
inactive: [11] 109 % of control | [12] 95 % of control | [4] 113 % of control | [13] 90 % of control | [5] 104 % of control

O=C1CCCC1C(=O)Nc1cccc2cccnc12 (stereo unspecified)
inactive: [4] 117 % of control | [5] 95 % of control | [6] 100 % of control

C=C1C=C(C)CC(C)(C)C1 (tested in a mixture with another compound)
inactive: dose: 100.0 mg/kg/injection, schedule: Q01DX009 (ip), vehicle: saline sonified 100 % of control | dose: 200.0 mg/kg/injection, schedule: Q01DX009 (ip), vehicle: saline sonified 100 % of control | dose: 400.0 mg/kg/injection, schedule: Q01DX009 (ip), vehicle: saline sonified 100 % of control

CC(C)C(=O)OCC1OC(n2cnc3c(=S)nc(N)[nH]c32)C(OC(=O)C(C)C)C1OC(=O)C(C)C (stereo unspecified)
inactive: [10] 92 % of control

O=C(O)C1C(C(=O)O)N2C(c3ccccc3)C(C(=O)O)C(C(=O)O)N2C1c1ccccc1 (stereo unspecified)
inactive: [7] 90 % of control | [8] 90 % of control | [9] 90 % of control

CCc1c(-c2ccccc2)[nH]c2ccccc12
inactive: [7] 115 % of control | [8] 113 % of control | [9] 123 % of control

NC(Cc1ccccc1Cl)C(=O)O (stereo unspecified)
inactive: [16] 86 % of control | [17] 101 % of control | dose: 25.0 mg/kg/injection, schedule: Q01DX009 (ip), vehicle: saline 122 % of control | [7] 107 % of control | dose: 50.0 mg/kg/injection, schedule: Q01DX009 (ip), vehicle: saline 116 % of control | [8] 102 % of control | [9] 94 % of control

CCOC(=O)c1c(NC(=O)C(F)(F)F)[nH]c(SSc2[nH]c(NC(=O)C(F)(F)F)c(C(=O)OCC)c2C(=O)OCC)c1C(=O)OCC
inactive: dose: 1.0 mg/kg/injection, schedule: Q01DX009 (ip), vehicle: water 111 % of control | dose: 2.0 mg/kg/injection, schedule: Q01DX009 (ip), vehicle: water 90 % of control | dose: 4.0 mg/kg/injection, schedule: Q01DX009 (ip), vehicle: water 104 % of control | dose: 8.0 mg/kg/injection, schedule: Q01DX009 (ip), vehicle: water 104 % of control | dose: 50.0 mg/kg/injection, schedule: Q04DX003 (ip), vehicle: saline with Tween-80 106 % of control | [4] 117 % of control | [5] 106 % of control

O=C(O)CCCl
inactive: dose: 50.0 mg/kg/injection, schedule: Q04DX003 (ip), vehicle: saline 104 % of control | dose: 100.0 mg/kg/injection, schedule: Q01DX009 (ip), vehicle: saline 91 % of control | [14] 104 % of control | dose: 200.0 mg/kg/injection, schedule: Q01DX009 (ip), vehicle: saline 95 % of control | [15] 100 % of control

C=CCNC(=S)Nc1cc(Cl)ccc1OC
inactive: [1] 109 % of control | [2] 95 % of control | [3] 95 % of control

Cc1ccc(NC(=O)c2ccc(Cl)cc2)c(Br)c1
inactive: dose: 100.0 mg/kg/injection, schedule: Q01DX001 (ip), vehicle: saline with Tween-80 100 % of control | dose: 200.0 mg/kg/injection, schedule: Q01DX001 (ip), vehicle: saline with Tween-80 109 % of control | dose: 400.0 mg/kg/injection, schedule: Q01DX001 (ip), vehicle: saline with Tween-80 100 % of control

C=C(C)C(=O)O[C@@H]1C[C@@]2(C)O[C@@H]2C[C@H](O)/C(C)=C/[C@H]2OC(=O)C(=C)[C@@H]21
inactive: dose: 6.0 mg/kg/injection, schedule: Q01DX009 (ip), vehicle: saline + alcohol 113 % of control | dose: 12.0 mg/kg/injection, schedule: Q01DX009 (ip), vehicle: saline + alcohol 109 % of control | dose: 48.0 mg/kg/injection, schedule: Q01DX009 (ip), vehicle: saline + alcohol 113 % of control

CC(=O)O[C@H]1CC[C@H]2[C@@H]3CCC4=CC(=O)CC[C@]4(C)[C@H]3[C@H](OC(C)=O)C[C@]12C
inactive: [4] 100 % of control | [5] 95 % of control | [6] 109 % of control

O=C(O)CCSc1ncnc2nc[nH]c12
inactive: [16] 104 % of control | [17] 109 % of control | [7] 109 % of control | [4] 100 % of control | [5] 113 % of control | [6] 104 % of control

O=C(c1ccccc1)C1CCC(=O)C1c1ccccc1 (stereo unspecified)
inactive: [7] 108 % of control | [8] 100 % of control | [9] 99 % of control

O=C(/C=C/c1ccc(OCc2ccccc2)cc1)c1ccccc1F
inactive: [7] 96 % of control | [8] 100 % of control | [9] 96 % of control
